Test system: patients with elevated triglyceride levels on statin therapy
Experiment: REDUCE-IT recurrent and total ischemic events (Example 2; Andersen-Gill and Wei-Lin-Weissfeld models)
Assay type: in vivo, human
Conditions: for total key secondary endpoint events, HR / total key secondary endpoint events, number: without adjustment for stratification differences
Source text: The following study was a multi-center, placebo-controlled clinical trial the details of which are described above in Example 1, the REDUCE-IT design. […] Randomization was stratified by cardiovascular risk cohort (i.e., secondary or primary prevention), use of ezetimibe, and by geographic region.
The primary outcome for the study was total recurrent events consisting of the composite of cardiovascular death, nonfatal myocardial infarction, nonfatal stroke, coronary revascularization, or hospitalization for unstable angina. Recurrent event analyses were also performed for the key secondary endpoint, a composite of cardiovascular death, non-fatal myocardial infarction, or non-fatal stroke. For each of these composite endpoints, the effects of icosapent ethyl in the secondary and primary prevention strata were examined separately.
Demographic and baseline disease characteristics are presented using frequencies and percentages for categorical variables and medians with interquartile ranges for continuous variables. Between treatment group comparisons were derived using the chi-square test for categorical variables and Wilcoxon rank test for continuous variables. All clinical endpoint events used in the efficacy analyses were adjudicated by an independent Clinical Endpoint Committee (CEC) who were blinded to the treatment assignment. Since the primary efficacy endpoint was the time from randomization to the first occurrence of any component of the composite endpoint, and recurrence of such events within each patient is possible, a pre-specified analysis using a Cox proportional-hazard with the counting-process formulation of Andersen and Gill was performed to model the first and all recurrent cardiovascular events. Hazard ratios (HR) and corresponding 95% confidence intervals (CI) are reported from this model. In addition, as a marginal model and an extension of survival models based on the Cox proportional hazard model, the modified Wei-Lin-Weissfeld (WLW) method for analysis of recurrent events in the presence of deaths was carried out as a supportive analysis. In addition, as pre-specified, a recurrent event analysis using the Andersen-Gill and Wei-Lin-Weissfeld methods were carried out for the individual primary event components other than CV death. Though not pre-specified, additional recurrent event analyses were performed for the key secondary endpoint, which is a composite of CV death, non-fatal MI, or non-fatal stroke, and for the primary endpoint and the key secondary endpoint in the primary and secondary prevention strata to explore further the consistency of clinical benefit of icosapent ethyl. In subgroup analyses of the two cardiovascular risk strata (i.e., primary and secondary prevention), site-level discrepancies in cardiovascular risk group assignment occurring at entry and detected during the study (1.8%) were adjusted to conform with documented medical history data prior to randomization. All efficacy analyses were performed according to the intention-to-treat principle. All tests were based on a 2-sided nominal significance level of 5% with no adjustments for multiple comparisons.

[1] = Wei-Lin-Weissfeld model, vs placebo
[2] = per 100 patients treated for five years

CC/C=C\C/C=C\C/C=C\C/C=C\C/C=C\CCCC(=O)OCC [icosapent ethyl, eicosapentaenoic acid ethyl ester]
first events, reduction (Example 2): 25%
second events, reduction (Example 2): 28%
third or more events, reduction (Example 2): 50%
total events for primary composite efficacy outcome, relative risk reduction (Example 2): 32%
first occurrence of primary composite endpoint, HR [1]: 0.75
second occurrence of primary composite endpoint, HR [1]: 0.72
additional primary endpoint events, total reduction vs placebo (number) (in vivo): 179
first primary endpoint events, total reduction vs placebo (number) (in vivo): 196
second primary endpoint events, total reduction vs placebo (number) (in vivo): 164
total primary endpoint events, number (overall trial, placebo 1,724): 1,185
total key secondary endpoints, number (overall, placebo 861): 590
total key secondary endpoints, HR (overall, vs placebo): 0.71
cardiovascular deaths prevented [2]: 1
coronary revascularizations prevented [2]: 8
episodes of unstable angina prevented [2]: 2
myocardial infarctions prevented [2]: 4
strokes prevented [2]: 1
additional primary endpoint events, number (placebo 360): 131
second primary endpoint events, number (placebo 463): 299
first primary endpoint events, number (placebo 901): 705
total key secondary endpoints, HR (primary prevention stratum): 0.71
total primary endpoint events, HR (primary prevention stratum, adjusted stratification): 0.79
total primary endpoint events, number (primary prevention stratum, adjusted stratification, placebo 256): 197
total primary endpoint events, HR (primary prevention stratum, without adjusting for stratification differences): 0.86
total primary endpoint events, number (primary prevention stratum, without adjusting for stratification differences, placebo 263): 221
total key secondary endpoint events, HR (primary prevention): 0.78
total key secondary endpoint events, number (primary prevention, placebo 142): 112
total key secondary endpoints, HR (secondary prevention stratum): 0.70
total primary endpoint events, HR (secondary prevention stratum, adjusted stratification): 0.66
total primary endpoint events, number (secondary prevention stratum, adjusted stratification, placebo 1,468): 988
total primary endpoint events, HR (secondary prevention stratum, without adjusting for stratification differences): 0.65
total primary endpoint events, number (secondary prevention stratum, without adjusting for stratification differences, placebo 1,461): 964
total key secondary endpoint events, HR (secondary prevention stratum): 0.69
total key secondary endpoint events, number (secondary prevention stratum, placebo 671): 478
total primary endpoint events, HR (vs placebo, overall trial): 0.68

Source: patent US20200261391A1, “METHODS OF REDUCING THE RISK OF A CARDIOVASCULAR EVENT IN A STATIN-TREATED SUBJECT BY INCREASING SERUM AND PLASMA EPA AND DPA LEVELS” (Amarin Pharmaceuticals Ireland Limited, priority 2019, published 2020)
